Legend:
[1] = molecular target: T1, Human Neuropeptide Y2 Receptor (Homo sapiens, UniProt P49146); assay: Radioligand binding competition assay (RLB); details: Table 3, 125I-PYY(1-36) competition; read-out: Ki
T1 construct: purchased CHEMICON HTS066M
T1 sequence (P49146 1-381): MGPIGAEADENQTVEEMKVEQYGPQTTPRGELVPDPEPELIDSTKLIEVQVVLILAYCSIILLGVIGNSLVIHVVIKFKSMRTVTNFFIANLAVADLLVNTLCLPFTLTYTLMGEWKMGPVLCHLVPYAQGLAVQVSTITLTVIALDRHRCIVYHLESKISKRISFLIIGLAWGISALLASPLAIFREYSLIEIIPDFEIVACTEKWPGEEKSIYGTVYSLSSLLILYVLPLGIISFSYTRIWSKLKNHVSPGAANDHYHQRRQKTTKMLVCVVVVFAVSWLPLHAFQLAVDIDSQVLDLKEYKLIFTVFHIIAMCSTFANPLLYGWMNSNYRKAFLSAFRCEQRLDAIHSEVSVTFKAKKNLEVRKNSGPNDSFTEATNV
Method in brief: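 Displacement of radioligand is measured after 2 h at room temperature with receptor membranes in Mg2+/Ca2+ HEPES buffer, pH 7.4. Filter-bound radioactivity is counted and IC50 obtained from curve fitting.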

[2] = Solubility determination; details: for Sol6: pH 6; for Sol7: pH 7
Method in brief: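 Solubility is derived from the ratio of reversed-phase peak areas, filtered sample over a control dissolved at 1 mg/ml in 50% acetonitrile. Peptides are agitated for 2 hours at room temperature in 0.1 M sodium diphosphate at pH 6.4 or 7.0, aiming at 10 mg/ml.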

| Ki [1] [nM] | Sol6 [2] [mg/mL] | Sol7 [2] [mg/mL] | Structure (SMILES) |
| --- | --- | --- | --- |
| 0.89 | 8.1 | 8.3 | CC(C)CC(=O)N[C@@H](C)C(=O)N1CCC[C@H]1C(=O)N[C@@H](CCC(=O)O)C(=O)N[C@@H](CCCCNC(=O)CCCCCNC(=O)CC[C@H](NC(=O)CCCCCCCCCCCCCCCCC(=O)O)C(=O)O)C(=O)N1CCC[C@H]1C(=O)N[C@@H](CCC(=O)O)C(=O)N[C@@H](C)C(=O)N[C@@H](CC(=O)O)C(=O)N[C@@H](C)C(=O)N[C@@H](CO)C(=O)N1CCC[C@H]1C(=O)N[C@@H](CCC(=O)O)C(=O)N[C@@H](CCC(=O)O)C(=O)N[C@H](C(=O)N[C@@H](CCC(N)=O)C(=O)N[C@@H](CCCNC(=N)N)C(=O)N[C@@H](Cc1ccc(O)cc1)C(=O)N[C@@H](Cc1ccc(O)cc1)C(=O)N[C@H](C(=O)N[C@@H](C)C(=O)N[C@@H](CC(C)C)C(=O)N[C@@H](CCCNC(=N)N)C(=O)N[C@@H](Cc1c[nH]cn1)C(=O)N[C@@H](Cc1ccc(O)cc1)C(=O)N[C@@H](Cc1ccc(O)cc1)C(=O)N[C@@H](CC(N)=O)C(=O)N[C@@H](Cc1c[nH]c2ccccc12)C(=O)N[C@@H](CC(C)C)C(=O)N[C@H](C(=O)N[C@@H](CCCNC(=N)N)C(=O)N[C@@H](CCC(N)=O)C(=O)N[C@@H](CCCNC(=N)N)C(=O)N[C@@H](Cc1ccc(O)cc1)C(N)=O)[C@@H](C)O)C(C)C)[C@@H](C)O [Compound 179, N{alpha-4}-(3-methylbutanoyl)-N{epsilon-7}-(6-[(4S)-4-carboxy-4-(17-carboxyheptadecanamido)butanamido]hexanoyl)-[4A,7K,9E,10A,17T,18Q,22V,23A,28Y,30W,31L]-hPYY(4-36)] |
| 2.33 | 9.2 | 9.2 | CC[C@H](C)[C@H](NC(=O)[C@H](Cc1ccc(O)cc1)NC(=O)[C@H](Cc1ccc(O)cc1)NC(=O)[C@H](CCCNC(=N)N)NC(=O)[C@H](CCC(N)=O)NC(=O)[C@H](CC(C)C)NC(=O)[C@H](CCC(=O)O)NC(=O)[C@H](CCC(=O)O)NC(=O)[C@@H]1CCCN1C(=O)[C@@H](NC(=O)[C@H](C)NC(=O)[C@H](CC(=O)O)NC(=O)[C@H](CCC(=O)O)NC(=O)[C@H](CCC(=O)O)NC(=O)[C@@H]1CCCN1C(=O)[C@H](CCCCNC(=O)CCCCCNC(=O)CC[C@H](NC(=O)CCCCCCCCCCCCCCCCC(=O)O)C(=O)O)NC(=O)[C@H](CCC(=O)O)NC(=O)[C@@H]1CCCN1C(=O)[C@H](C)NC(=O)CC(C)C)[C@@H](C)O)C(=O)N[C@@H](CO)C(=O)N[C@@H](CC(C)C)C(=O)N[C@@H](CCCNC(=N)N)C(=O)N[C@@H](Cc1c[nH]cn1)C(=O)N[C@@H](Cc1ccc(O)cc1)C(=O)N[C@@H](Cc1ccc(O)cc1)C(=O)N[C@@H](CC(N)=O)C(=O)N[C@@H](Cc1c[nH]c2ccccc12)C(=O)N[C@@H](CC(C)C)C(=O)N[C@H](C(=O)N[C@@H](CCCNC(=N)N)C(=O)N[C@@H](CCC(N)=O)C(=O)N[C@@H](CCCNC(=N)N)C(=O)N[C@@H](Cc1ccc(O)cc1)C(N)=O)[C@@H](C)O [Compound 66, N{alpha-4}-(3-methylbutanoyl)-N{epsilon-7}-(6-[(4S)-4-carboxy-4-(17-carboxyheptadecanamido)butanamido]hexanoyl)-[4A,7K,9E,13T,18Q,22I,28Y,30W,31L]-hPYY(4-36)] |
| 8.71 | 9.6 | 10.0 | CC(C)CC(=O)N[C@@H](C)C(=O)N1CCC[C@H]1C(=O)N[C@@H](CCC(=O)O)C(=O)N[C@@H](CCCCNC(=O)CCCCCNC(=O)CC[C@H](NC(=O)CCCCCCCCCCCCCCCCC(=O)O)C(=O)O)C(=O)N1CCC[C@H]1C(=O)N[C@@H](CCC(=O)O)C(=O)N[C@@H](CCC(=O)O)C(=O)N[C@@H](CC(=O)O)C(=O)N[C@@H](C)C(=O)N[C@H](C(=O)N1CCC[C@H]1C(=O)N[C@@H](CCC(=O)O)C(=O)N[C@@H](CCC(=O)O)C(=O)N[C@@H](CC(C)C)C(=O)N[C@@H](CCC(N)=O)C(=O)N[C@@H](CCCNC(=N)N)C(=O)N[C@@H](Cc1ccc(O)cc1)C(=O)N[C@@H](Cc1ccc(O)cc1)C(=O)N[C@H](C(=O)N[C@H](C(=O)N[C@@H](CC(C)C)C(=O)N[C@@H](CCCNC(=N)N)C(=O)N[C@@H](Cc1c[nH]cn1)C(=O)N[C@@H](Cc1ccc(O)cc1)C(=O)N[C@@H](Cc1ccc(O)cc1)C(=O)N[C@@H](CC(N)=O)C(=O)N[C@@H](Cc1c[nH]c2ccccc12)C(=O)N[C@@H](CC(C)C)C(=O)N[C@H](C(=O)N[C@@H](CCCNC(=N)N)C(=O)N[C@@H](CCC(N)=O)C(=O)N[C@@H](CCCNC(=N)N)C(=O)N[C@@H](Cc1ccc(O)cc1)C(N)=O)[C@@H](C)O)C(C)C)C(C)C)[C@@H](C)O [Compound 90, N{alpha-4}-(3-methylbutanoyl)-N{epsilon-7}-(6-[(4S)-4-carboxy-4-(17-carboxyheptadecanamido)butanamido]hexanoyl)-[4A,7K,9E,13T,18Q,22V,23V,28Y,30W,31L]-hPYY(4-36)] |
| 3.97 | >10.0 | >10.0 | CC[C@H](C)[C@H](NC(=O)[C@H](CCC(=O)O)NC(=O)[C@H](CCC(=O)O)NC(=O)[C@@H]1CCCN1C(=O)[C@H](CC(C)C)NC(=O)[C@H](C)NC(=O)[C@H](CC(=O)O)NC(=O)[C@H](CCC(=O)O)NC(=O)[C@H](CCC(=O)O)NC(=O)[C@@H]1CCCN1C(=O)[C@H](CCCCNC(=O)CCCCCNC(=O)CC[C@H](NC(=O)CCCCCCCCCCCCCCCCC(=O)O)C(=O)O)NC(=O)[C@H](CCC(=O)O)NC(=O)[C@@H]1CCCN1C(=O)[C@H](C)NC(=O)CC(C)C)C(=O)N[C@@H](CCC(N)=O)C(=O)N[C@@H](CCCNC(=N)N)C(=O)N[C@@H](Cc1ccc(O)cc1)C(=O)N[C@@H](Cc1ccc(O)cc1)C(=O)N[C@H](C(=O)N[C@@H](CO)C(=O)N[C@@H](CC(C)C)C(=O)N[C@@H](CCCNC(=N)N)C(=O)N[C@@H](Cc1c[nH]cn1)C(=O)N[C@@H](Cc1ccc(O)cc1)C(=O)N[C@@H](Cc1ccc(O)cc1)C(=O)N[C@@H](CC(N)=O)C(=O)N[C@@H](Cc1c[nH]c2ccccc12)C(=O)N[C@@H](CC(C)C)C(=O)N[C@H](C(=O)N[C@@H](CCCNC(=N)N)C(=O)N[C@@H](CCC(N)=O)C(=O)N[C@@H](CCCNC(=N)N)C(=O)N[C@@H](Cc1ccc(O)cc1)C(N)=O)[C@@H](C)O)C(C)C [Compound 142, N{alpha-4}-(3-methylbutanoyl)-N{epsilon-7}-(6-[(4S)-4-carboxy-4-(17-carboxyheptadecanamido)butanamido]hexanoyl)-[4A,7K,9E,13L,17I,18Q,22V,28Y,30W,31L]-hPYY(4-36)] |
| 1.53 | 10.0 | 10.0 | CC(C)CC(=O)N[C@@H](C)C(=O)N1CCC[C@H]1C(=O)N[C@@H](CCC(=O)O)C(=O)N[C@@H](CCCCNC(=O)CCCCCNC(=O)CC[C@H](NC(=O)CCCCCCCCCCCCCCCCC(=O)O)C(=O)O)C(=O)N1CCC[C@H]1C(=O)N[C@@H](CCC(=O)O)C(=O)N[C@@H](C)C(=O)N[C@@H](CC(=O)O)C(=O)N[C@@H](C)C(=O)N[C@@H](CO)C(=O)N1CCC[C@H]1C(=O)N[C@@H](CCC(=O)O)C(=O)N[C@@H](CCC(=O)O)C(=O)N[C@H](C(=O)N[C@@H](CCC(N)=O)C(=O)N[C@@H](CCCNC(=N)N)C(=O)N[C@@H](Cc1ccc(O)cc1)C(=O)N[C@@H](Cc1ccc(O)cc1)C(=O)N[C@H](C(=O)N[C@@H](CO)C(=O)N[C@@H](CC(C)C)C(=O)N[C@@H](CCCNC(=N)N)C(=O)N[C@@H](Cc1c[nH]cn1)C(=O)N[C@@H](Cc1ccc(O)cc1)C(=O)N[C@@H](Cc1ccc(O)cc1)C(=O)N[C@@H](CC(N)=O)C(=O)N[C@@H](Cc1c[nH]c2ccccc12)C(=O)N[C@@H](CC(C)C)C(=O)N[C@H](C(=O)N[C@@H](CCCNC(=N)N)C(=O)N[C@@H](CCC(N)=O)C(=O)N[C@@H](CCCNC(=N)N)C(=O)N[C@@H](Cc1ccc(O)cc1)C(N)=O)[C@@H](C)O)C(C)C)[C@@H](C)O [Compound 13, N{alpha-4}-(3-methylbutanoyl)-N{epsilon-7}-(6-[(4S)-4-carboxy-4-(17-carboxyheptadecanamido)butanamido]hexanoyl)[4A,7K,9E,10A,17T,18Q,22V,28Y,30W,31L]-hPYY(4-36)] |
| 1.33 | 9.5 | 9.3 | CC[C@H](C)[C@H](NC(=O)[C@H](CCC(=O)O)NC(=O)[C@H](CCC(=O)O)NC(=O)[C@@H]1CCCN1C(=O)[C@H](CCC(=O)O)NC(=O)[C@H](C)NC(=O)[C@H](CC(=O)O)NC(=O)[C@H](C)NC(=O)[C@H](CCC(=O)O)NC(=O)[C@@H]1CCCN1C(=O)[C@H](CCCCNC(=O)CCCCCNC(=O)CC[C@H](NC(=O)CCCCCCCCCCCCCCCCC(=O)O)C(=O)O)NC(=O)[C@H](C)NC(=O)[C@@H]1CCCN1C(=O)[C@H](C)NC(=O)CC(C)C)C(=O)N[C@@H](CCC(N)=O)C(=O)N[C@@H](CCCNC(=N)N)C(=O)N[C@@H](Cc1ccc(O)cc1)C(=O)N[C@@H](Cc1ccc(O)cc1)C(=O)N[C@H](C(=O)N[C@@H](C)C(=O)N[C@@H](CC(C)C)C(=O)N[C@@H](CCCNC(=N)N)C(=O)N[C@@H](Cc1c[nH]cn1)C(=O)N[C@@H](Cc1ccc(O)cc1)C(=O)N[C@@H](Cc1ccc(O)cc1)C(=O)N[C@@H](CC(N)=O)C(=O)N[C@@H](Cc1c[nH]c2ccccc12)C(=O)N[C@@H](CC(C)C)C(=O)N[C@H](C(=O)N[C@@H](CCCNC(=N)N)C(=O)N[C@@H](CCC(N)=O)C(=O)N[C@@H](CCCNC(=N)N)C(=O)N[C@@H](Cc1ccc(O)cc1)C(N)=O)[C@@H](C)O)C(C)C [Compound 181, N{alpha-4}-(3-methylbutanoyl)-N{epsilon-7}-(6-[(4S)-4-carboxy-4-(17-carboxyheptadecanamido)butanamido]hexanoyl)-[4A,6A,7K,9E,10A,13E,17I,18Q,22V,23A,28Y,30W,31L]-hPYY(4-36)] |

— patent publication US12391737B2, “Soluble NPY2 receptor agonists” (Boehringer Ingelheim International GmbH, priority 2020, dated 2025)
